What was measured:
FAK = FAK (Homo sapiens (Human), UniProt Q05397); assay: Biochemical assay for FAK activity (LANCE TR-FRET, ULight-poly Glu,Ala,Tyr substrate); settings: GST-tagged FAK, 120 min reaction
Summary of the method: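 GST-tagged FAK (2.5 nM working stock) with ULight-poly Glu,Ala,Tyr (666 nM stock) and ATP (33.3 μM stock) in Tris pH 7.5/MgCl2/DTT/CHAPS buffer with BSA, 120 min; EDTA-quenched. Phosphorylation read by TR-FRET with Eu-anti-phosphotyrosine (PY20) antibody after 60 min. Compounds tested as 12-point 3-fold dilutions.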

PYK2 = PYK2 (Homo sapiens (Human), UniProt Q14289); assay: Biochemical assay for PYK2 activity (LANCE TR-FRET, ULight-poly Glu,Ala,Tyr substrate); settings: GST-tagged PYK2, 40 min reaction
Summary of the method: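 GST-tagged human PYK2 (2 nM working stock) with ULight-poly Glu,Ala,Tyr (1:1:1) peptide (666 nM working stock) and ATP (46.6 μM working stock) in 40 mM Tris pH 7.5, MgCl2, 1 mM DTT, 1 mM CHAPS; 40 min reaction, EDTA quench. Phosphotyrosine read by LANCE Eu-anti-phosphotyrosine (PY20) TR-FRET after 60 min; 12-point 3-fold compound dilutions.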

FAK, sequence (Q05397 whole entry): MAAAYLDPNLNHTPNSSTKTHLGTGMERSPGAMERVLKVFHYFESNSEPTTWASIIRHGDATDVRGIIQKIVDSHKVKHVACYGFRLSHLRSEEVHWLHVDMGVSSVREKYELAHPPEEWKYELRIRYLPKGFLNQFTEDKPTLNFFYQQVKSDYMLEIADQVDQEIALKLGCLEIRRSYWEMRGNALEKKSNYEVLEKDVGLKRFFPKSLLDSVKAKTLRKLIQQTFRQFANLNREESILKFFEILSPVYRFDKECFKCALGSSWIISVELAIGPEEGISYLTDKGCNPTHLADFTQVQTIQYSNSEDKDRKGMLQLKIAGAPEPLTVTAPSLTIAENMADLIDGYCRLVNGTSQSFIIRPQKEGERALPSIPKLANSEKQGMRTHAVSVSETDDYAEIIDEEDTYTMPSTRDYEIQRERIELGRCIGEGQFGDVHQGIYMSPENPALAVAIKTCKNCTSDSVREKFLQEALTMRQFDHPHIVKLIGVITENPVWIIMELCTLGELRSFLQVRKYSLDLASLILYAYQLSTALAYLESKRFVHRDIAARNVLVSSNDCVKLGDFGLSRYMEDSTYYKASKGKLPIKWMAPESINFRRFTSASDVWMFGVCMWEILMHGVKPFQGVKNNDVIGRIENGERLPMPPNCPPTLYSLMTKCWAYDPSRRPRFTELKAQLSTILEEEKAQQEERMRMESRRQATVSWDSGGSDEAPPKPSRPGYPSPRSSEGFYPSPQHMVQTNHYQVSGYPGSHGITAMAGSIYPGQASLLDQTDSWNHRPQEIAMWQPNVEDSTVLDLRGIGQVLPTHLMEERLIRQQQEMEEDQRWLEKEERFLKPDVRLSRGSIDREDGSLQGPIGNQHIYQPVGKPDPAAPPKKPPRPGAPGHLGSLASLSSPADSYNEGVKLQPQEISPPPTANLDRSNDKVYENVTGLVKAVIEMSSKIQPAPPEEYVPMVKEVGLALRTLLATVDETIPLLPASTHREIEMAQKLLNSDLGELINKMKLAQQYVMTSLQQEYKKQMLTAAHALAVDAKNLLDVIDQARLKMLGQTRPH
PYK2, sequence (Q14289 whole entry): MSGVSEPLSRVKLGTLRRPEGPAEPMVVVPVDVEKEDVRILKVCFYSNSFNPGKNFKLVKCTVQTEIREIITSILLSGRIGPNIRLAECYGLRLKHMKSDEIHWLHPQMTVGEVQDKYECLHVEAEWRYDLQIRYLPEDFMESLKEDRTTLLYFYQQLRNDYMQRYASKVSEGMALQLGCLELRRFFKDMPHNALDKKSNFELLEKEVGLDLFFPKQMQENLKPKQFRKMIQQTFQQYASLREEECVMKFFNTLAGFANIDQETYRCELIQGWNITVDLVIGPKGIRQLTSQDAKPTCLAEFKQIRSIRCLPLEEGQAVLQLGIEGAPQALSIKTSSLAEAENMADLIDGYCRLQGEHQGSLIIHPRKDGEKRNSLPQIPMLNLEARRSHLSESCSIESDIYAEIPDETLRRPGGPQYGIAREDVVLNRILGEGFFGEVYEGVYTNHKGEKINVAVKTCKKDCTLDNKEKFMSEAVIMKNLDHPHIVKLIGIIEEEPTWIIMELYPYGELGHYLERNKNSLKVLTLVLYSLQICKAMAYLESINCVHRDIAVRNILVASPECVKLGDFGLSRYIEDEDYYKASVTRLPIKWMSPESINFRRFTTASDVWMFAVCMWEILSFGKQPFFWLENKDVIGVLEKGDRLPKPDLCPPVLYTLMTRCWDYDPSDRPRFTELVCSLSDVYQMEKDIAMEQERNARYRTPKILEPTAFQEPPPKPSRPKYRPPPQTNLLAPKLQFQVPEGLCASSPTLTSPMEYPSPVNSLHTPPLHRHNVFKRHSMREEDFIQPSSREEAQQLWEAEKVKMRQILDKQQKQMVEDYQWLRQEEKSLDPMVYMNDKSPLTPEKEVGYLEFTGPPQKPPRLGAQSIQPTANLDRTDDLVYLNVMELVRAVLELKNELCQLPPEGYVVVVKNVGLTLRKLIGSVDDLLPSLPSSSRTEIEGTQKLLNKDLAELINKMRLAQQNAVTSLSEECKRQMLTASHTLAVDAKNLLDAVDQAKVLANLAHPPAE

Row | Structure (SMILES) | IC50 (FAK) | IC50 (PYK2)
1 | COc1cc(-n2ccccc2=O)ccc1Nc1nc2c(c(Nc3ccccc3S(=O)(=O)NC(C)C)n1)CCN2 [Example 83, N-isopropyl-2-(2-(2-methoxy-4-(2-oxopyridin-1(2H)-yl)phenylamino)-6,7-dihydro-5H-pyrrolo[2,3-d]pyrimidin-4-ylamino)benzenesulfonamide] | < 20 nM | < 20 nM
2 | CNC(=O)c1ccccc1Nc1nc(Nc2cccc3ccoc23)nc2c1C(C)(C)CN2 [Example 131, 2-(2-(benzofuran-7-ylamino)-5,5-dimethyl-6,7-dihydro-5H-pyrrolo[2,3-d]pyrimidin-4-ylamino)-N-methylbenzamide] | < 20 nM | < 20 nM
3 | CCCNS(=O)(=O)c1ccccc1Nc1nc(Nc2ccc(N3CCOCC3)cc2OC)nc2c1C1(CC1)CN2 [Example 148, 2-(2′-(2-methoxy-4-morpholinophenylamino)-6′,7′-dihydrospiro[cyclopropane-1,5′-pyrrolo[2,3-d]pyrimidine]-4′-ylamino)-N-propylbenzenesulfonamide] | < 20 nM | < 20 nM
4 | CNC(=O)c1cccc(Nc2nc3c(c(Nc4ccccc4S(=O)(=O)NC(C)C)n2)CCN3)c1 [Example 74, 3-(4-(2-(N-isopropylsulfamoyl)phenylamino)-6,7-dihydro-5H-pyrrolo[2,3-d]pyrimidin-2-ylamino)-N-methylbenzamide] | < 20 nM | < 50 nM
5 | CCN1C(=O)CCCc2c1ccc(Nc1nc3c(c(Nc4ccccc4C(=O)NC)n1)CCN3)c2OC [Example 17, 2-(2-(1-ethyl-6-methoxy-2-oxo-2,3,4,5-tetrahydro-1H-benzo[b]azepin-7-ylamino)-6,7-dihydro-5H-pyrrolo[2,3-d]pyrimidin-4-ylamino)-N-methylbenzamide] | < 1000 nM | < 200 nM
6 | CCCNS(=O)(=O)c1ccccc1Nc1nc(Nc2ccc(N3CCOCC3)cc2OC)nc2c1C(C)(C)CN2 [Example 106, 2-(2-(2-methoxy-4-morpholinophenylamino)-5,5-dimethyl-6,7-dihydro-5H-pyrrolo[2,3-d]pyrimidin-4-ylamino)-N-propylbenzenesulfonamide] | < 20 nM | < 20 nM
7 | COc1cc(N2CCOCC2)ccc1Nc1nc2c(c(Nc3ccc(F)c(F)c3)n1)C(C)(C)CN2 [Example 125, N^4-(3,4-difluorophenyl)-N^2-(2-methoxy-4-morpholinophenyl)-5,5-dimethyl-6,7-dihydro-5H-pyrrolo[2,3-d]pyrimidine-2,4-diamine] | < 1000 nM | > 1000 nM
8 | CC(=O)Nc1ccc(Nc2nc3c(c(Nc4ccccc4S(=O)(=O)NC(C)C)n2)CCN3)cc1 [Example 63, N-(4-(4-(2-(N-isopropylsulfamoyl)phenylamino)-6,7-dihydro-5H-pyrrolo[2,3-d]pyrimidin-2-ylamino)phenyl)acetamide] | < 20 nM | < 20 nM
9 | CCNS(=O)(=O)c1ccccc1Nc1nc(Nc2ccc(N3CCOCC3)cc2OC)nc2c1C(C)(C)CN2 [Example 113, N-ethyl-2-(2-(2-methoxy-4-morpholinophenylamino)-5,5-dimethyl-6,7-dihydro-5H-pyrrolo[2,3-d]pyrimidin-4-ylamino)benzenesulfonamide] | < 20 nM | < 20 nM
10 | COc1cc(N2CCOCC2)ccc1Nc1nc2c(c(Nc3ccccc3S(=O)(=O)NC3CCCCC3)n1)C(C)CN2 (racemic) [Example 29, (±)-N-cyclohexyl-2-(2-(2-methoxy-4-morpholinophenylamino)-5-methyl-6,7-dihydro-5H-pyrrolo[2,3-d]pyrimidin-4-ylamino)benzenesulfonamide] | < 50 nM | < 500 nM
11 | COc1cc(N2CCOCC2)ccc1Nc1nc2c(c(Nc3ccccc3S(=O)(=O)Nc3ccccc3)n1)CCN2 [Example 51, 2-(2-(2-methoxy-4-morpholinophenylamino)-6,7-dihydro-5H-pyrrolo[2,3-d]pyrimidin-4-ylamino)-N-phenylbenzenesulfonamide] | < 200 nM | < 500 nM
12 | CC(=O)Nc1cccc(Nc2nc3c(c(Nc4ccccc4S(=O)(=O)NC(C)C)n2)CCN3)c1 [Example 75, N-(3-(4-(2-(N-isopropylsulfamoyl)phenylamino)-6,7-dihydro-5H-pyrrolo[2,3-d]pyrimidin-2-ylamino)phenyl)acetamide] | < 20 nM | < 20 nM
13 | COCCCNS(=O)(=O)c1ccccc1Nc1nc(Nc2ccc(N3CCOCC3)cc2OC)nc2c1CCN2 [Example 48, 2-(2-(2-methoxy-4-morpholinophenylamino)-6,7-dihydro-5H-pyrrolo[2,3-d]pyrimidin-4-ylamino)-N-(3-methoxypropyl)benzenesulfonamide] | < 100 nM | < 100 nM
14 | COc1cc(N2CCC(O)C2)ccc1Nc1nc2c(c(Nc3ccccc3S(=O)(=O)NC(C)C)n1)CCN2 (centres unmarked) [Example 80, 2-(2-(4-(3-hydroxypyrrolidin-1-yl)-2-methoxyphenylamino)-6,7-dihydro-5H-pyrrolo[2,3-d]pyrimidin-4-ylamino)-N-isopropylbenzenesulfonamide] | < 20 nM | < 100 nM
15 | CCN1C(=O)CCCc2c1ccc(Nc1nc3c(c(Nc4ccccc4C(=O)NC)n1)C(C)(C)CN3)c2OC [Example 133, 2-(2-(1-ethyl-6-methoxy-2-oxo-2,3,4,5-tetrahydro-1H-benzo[b]azepin-7-ylamino)-5,5-dimethyl-6,7-dihydro-5H-pyrrolo[2,3-d]pyrimidin-4-ylamino)-N-methylbenzamide] | < 20 nM | < 50 nM
16 | CNS(=O)(=O)c1ccccc1Nc1nc(Nc2ccc(N3CCOCC3)cc2OC)nc2c1C(C)CN2 (racemic) [Example 25, (±)-2-(2-(2-methoxy-4-morpholinophenylamino)-5-methyl-6,7-dihydro-5H-pyrrolo[2,3-d]pyrimidin-4-ylamino)-N-methylbenzenesulfonamide] | < 50 nM | < 20 nM
17 | CC(C)NS(=O)(=O)c1ccccc1Nc1nc(Nc2ccc(N3CCOCC3)cc2F)nc2c1CCN2 [Example 55, 2-(2-(2-fluoro-4-morpholinophenylamino)-6,7-dihydro-5H-pyrrolo[2,3-d]pyrimidin-4-ylamino)-N-isopropylbenzenesulfonamide] | < 20 nM | < 20 nM
18 | CNC(=O)c1ccc2c(c1Nc1nc(Nc3ccc(N4CCOCC4)cc3OC)nc3c1C(C)(C)CN3)OCO2 [Example 126, 4-(2-(2-methoxy-4-morpholinophenylamino)-5,5-dimethyl-6,7-dihydro-5H-pyrrolo[2,3-d]pyrimidin-4-ylamino)-N-methylbenzo[d][1,3]dioxole-5-carboxamide] | < 1000 nM | > 1000 nM
19 | COc1cc(N2CCOCC2)ccc1Nc1nc2c(c(Nc3ccccc3C(=O)N3CCCC3)n1)C(C)(C)CN2 [Example 121, (2-(2-(2-methoxy-4-morpholinophenylamino)-5,5-dimethyl-6,7-dihydro-5H-pyrrolo[2,3-d]pyrimidin-4-ylamino)phenyl)(pyrrolidin-1-yl)methanone] | < 200 nM | < 200 nM
20 | COc1cc(N2CCOCC2)ccc1Nc1nc2c(c(Nc3ccccc3N(C)S(C)(=O)=O)n1)CCN2 [Example 10, N-(2-(2-(2-methoxy-4-morpholinophenylamino)-6,7-dihydro-5H-pyrrolo[2,3-d]pyrimidin-4-ylamino)phenyl)-N-methylmethanesulfonamide] | < 100 nM | < 50 nM
21 | CC(C)NS(=O)(=O)c1ccccc1Nc1nc(Nc2ccc(N3CCOCC3)cc2)nc2c1CCN2 [Example 52, N-isopropyl-2-(2-(4-morpholinophenylamino)-6,7-dihydro-5H-pyrrolo[2,3-d]pyrimidin-4-ylamino)benzenesulfonamide] | < 20 nM | < 20 nM
22 | COc1cc(N2CCC(CO)CC2)ccc1Nc1nc2c(c(Nc3ccccc3S(=O)(=O)NC(C)C)n1)CCN2 [Example 79, 2-(2-(4-(4-(hydroxymethyl)piperidin-1-yl)-2-methoxyphenylamino)-6,7-dihydro-5H-pyrrolo[2,3-d]pyrimidin-4-ylamino)-N-isopropylbenzenesulfonamide] | < 20 nM | < 20 nM
23 | COCCNS(=O)(=O)c1ccccc1Nc1nc(Nc2ccc(N3CCOCC3)cc2OC)nc2c1C(C)(C)CN2 [Example 115, 2-(2-(2-methoxy-4-morpholinophenylamino)-5,5-dimethyl-6,7-dihydro-5H-pyrrolo[2,3-d]pyrimidin-4-ylamino)-N-(2-methoxyethyl)benzenesulfonamide] | < 20 nM | < 20 nM
24 | COCCCNS(=O)(=O)c1ccccc1Nc1nc(Nc2ccc(N3CCOCC3)cc2OC)nc2c1C(C)(C)CN2 [Example 114, 2-(2-(2-methoxy-4-morpholinophenylamino)-5,5-dimethyl-6,7-dihydro-5H-pyrrolo[2,3-d]pyrimidin-4-ylamino)-N-(3-methoxypropyl)benzenesulfonamide] | < 20 nM | < 20 nM
25 | COc1cc(N2CCOCC2)ccc1Nc1nc2c(c(Nc3ccccc3C=O)n1)CCN2 [Example 161, 2-(2-(2-methoxy-4-morpholinophenylamino)-6,7-dihydro-5H-pyrrolo[2,3-d]pyrimidin-4-ylamino)benzaldehyde] | < 1000 nM | < 1000 nM

— US9428508B2, “2,4-diamino-6,7-dihydro-5H-pyrrolo[2,3]pyrimidine derivatives as FAK/Pyk2 inhibitors” (Centaurus BioPharma Co., Ltd., priority 2011, dated 2016)
